Laboratory results published in a compilation of properties of binary mixtures (doi:10.1016/j.molliq.2017.08.088).

Test: xn = mol fraction of the nth substance listed
Details: 101 kPa

CN(CCO)CCO + CCCC[n+]1ccn(C)c1.F[B-](F)(F)F
viscosity [mPa·s]
Details	x2 = 0.1002	x2 = 0.1974	x2 = 0.3	x2 = 0.4001	x2 = 0.4998	x2 = 0.6	x2 = 0.6997	x2 = 0.7998	x2 = 0.8999
293.15 K	89.3	82.9	78.9	75.2	73.6	74.2	79.1	87.9	–
303.15 K	49.9	46.2	–	42.4	42.4	43.8	47.5	53.1	–
313.15 K	30	28	26.4	26.1	26.4	27.7	30.4	34	41.2
323.15 K	18.9	–	17.2	17.2	17.7	–	20.6	23.3	27.8
333.15 K	12.75	–	11.84	12.03	12.44	13.35	14.8	–	19.8
